How the values were obtained:
A498 [1] = test: Inhibition of cell invasion in human A498 cells assessed as decrease in cell density invading the bottom surface of the membrane at 2 uM by Transwell assay; type: functional, cell-based
HeLa [2] = test: Antiproliferative activity against human HeLa cells assessed as reduction in cell viability by MTT assay; type: functional, cell-based
A498 [3] = test: Inhibition of colony formation in human A498 cells assessed as proliferative capacity at 2 uM; type: functional; parameters: scale not given: the % may be the effect or the level left
A498 [4] = test: Inhibition of cell adhesion in human A498 cells at 4 uM; type: functional, cell-based
A498 [5] = test: Anti-angiogenesis activity against human A498 cells xenografted in chicken embryo chorioallantoic membrane assessed as CAM blood vessel growth at 1 uM; type: functional
A498 [6] = test: Antitumor activity against human A498 cells xenografted in chicken embryo chorioallantoic membrane assessed as decrease in tumor weight; type: functional, cell-based; conditions: dose 1-4 µM
A498 [7] = test: Inhibition of colony formation in human A498 cells assessed as proliferative capacity at 4 uM; type: functional; parameters: scale not given: the % may be the effect or the level left
MDA-MB-231 = test: Antiproliferative activity against human MDA-MB-231 cells assessed as reduction in cell viability by MTT assay; type: functional, cell-based
A498 [8] = test: Inhibition of cell adhesion in human A498 cells; type: functional, cell-based; conditions: dose 1-4 µM
A498 [9] = test: Antitumor activity against human A498 cells xenografted in chicken embryo chorioallantoic membrane assessed as decrease in tumor weight at 4 uM; type: functional, cell-based
A498 [10] = test: Inhibition of cell invasion in human A498 cells assessed as decrease in cell density invading the bottom surface of the membrane by Transwell assay; type: functional, cell-based; conditions: dose 1-4 µM
A498 [11] = test: Anti-angiogenesis activity against human A498 cells xenografted in chicken embryo chorioallantoic membrane assessed as CAM blood vessel growth at 4 uM; type: functional
A498 [12] = test: Antiproliferative activity against human A498 cells assessed as reduction in cell viability by MTT assay; type: functional, cell-based
A498 [13] = test: Anti-angiogenesis activity against human A498 cells xenografted in chicken embryo chorioallantoic membrane assessed as CAM blood vessel growth at 2 uM; type: functional
A498 [14] = test: Inhibition of colony formation in human A498 cells assessed as proliferative capacity at 1 uM; type: functional; parameters: scale not given: the % may be the effect or the level left
HeLa [15] = test: Antiproliferative activity against human HeLa cells assessed as inhibition of cell growth; type: functional, cell-based
NCI-H460 = test: Antiproliferative activity against human NCI-H460 cells assessed as inhibition of cell growth; type: functional, cell-based
PANC-1 = test: Antitumor activity against human PANC-1 cells; type: functional, cell-based
SMMC-7721 = test: Antitumor activity against human […] cells; type: functional, cell-based
A2780 = test: Antitumor activity against human A2780 cells; type: functional, cell-based

Row | SMILES | IC50 (HeLa [2]) [µM] | IC50 (MDA-MB-231) [µM] | IC50 (A498 [12]) [µM] | also measured
1 | COc1ccc(CN(C(=O)CCC(=O)Nc2ccc(OC)cc2)c2cc(OC)c(OC)c(OC)c2)cc1 | 8.24 | 31.5 | 1.94 | inhibition (A498 [1]): Active; Better Activity Compared To 4 Um Positive Control, Paclitaxel And Colchicine; Activity (A498 [3]): 26.03%; inhibition (A498 [4]): Active; Better Activity Compared To Positive Control, Paclitaxel And Colchicine; Activity (A498 [5]): 82.4%; Activity (A498 [6]): Dose-dependent-effect; Activity (A498 [7]): 11.16%; inhibition (A498 [8]): Dose-dependent-effect; Activity (A498 [9]): Active; Better Activity Compared To Positive Control, Paclitaxel And Colchicine; inhibition (A498 [10]): Dose-dependent-effect; Activity (A498 [11]): 42.04%; Activity (A498 [13]): 66.22%; Activity (A498 [14]): 66.94%
2 | COc1ccc(CN(C(=O)CCC(=O)Nc2cccc(Cl)c2)c2cc(OC)c(OC)c(OC)c2)cc1 | 20.4 | 48.3 | 10.7 | –
3 | COc1ccc(CN(C(=O)CCC(=O)Nc2ccc(O)cc2)c2cc(OC)c(OC)c(OC)c2)cc1 | 11.8 | 23.5 | 3.23 | –
4 | COc1ccc(CN(C(=O)CCC(=O)Nc2ccccc2Cl)c2cc(OC)c(OC)c(OC)c2)cc1 | 41.9 | 73 | 5.58 | –
5 | COc1ccc(CN(C(=O)C(=O)Nc2ccc(Cl)cc2)c2cc(OC)c(OC)c(OC)c2)cc1 | – | 40.7 | – | –
6 | COc1ccc(CN(C(=O)CCC(=O)Nc2ccc(Br)cc2)c2cc(OC)c(OC)c(OC)c2)cc1 | 20.8 | 58.6 | 5.4 | –
7 | COc1cc2c(c(OC)c1OC)-c1ccc(OC)c(=O)cc1[C@@H](NC(C)=O)CC2 [COLCHICINE] | 32.7 | > 100 | 7.17 | –
8 | COc1ccc(CN(C(=O)CCC(=O)Nc2cc(OC)c(OC)c(OC)c2)c2cc(OC)c(OC)c(OC)c2)cc1 | 57.5 | > 100 | > 100 | –
9 | COc1ccc(CN(C(=O)CCC(=O)Nc2cccc(C)c2)c2cc(OC)c(OC)c(OC)c2)cc1 | 19.2 | 16.6 | 8.85 | –
10 | CC(=O)O[C@H]1C(=O)[C@@]2(C)[C@H]([C@H](OC(=O)c3ccccc3)[C@]3(O)C[C@H](OC(=O)[C@H](O)[C@@H](NC(=O)c4ccccc4)c4ccccc4)C(C)=C1C3(C)C)[C@]1(OC(C)=O)CO[C@@H]1C[C@@H]2O [PACLITAXEL] | 21.3 | 31.4 | – | –
11 | COc1ccc(N(C)c2nc(C)nc3ccccc23)cc1NC(=O)CCC(=O)NO | – | – | – | IC50 (HeLa [15]): 2.41 µM; IC50 (NCI-H460): 1.05 µM
12 | COc1ccc(CN(C(=O)C(=O)Nc2ccc(C)cc2)c2cc(OC)c(OC)c(OC)c2)cc1 | – | 55.9 | – | –
13 | COc1ccc(CCc2cc(OC)c(OC)c(OC)c2)cc1O | – | – | – | IC50 (PANC-1): 0.45 µM; IC50 (SMMC-7721): 0.29 µM; IC50 (A2780): 0.42 µM
14 | COc1ccc(CN(C(=O)CCC(=O)Nc2ccc(Cl)cc2)c2cc(OC)c(OC)c(OC)c2)cc1 | 13.8 | 22.5 | 11.5 | –
15 | COc1ccc(CN(C(=O)CCC(=O)Nc2ccc(C)cc2)c2cc(OC)c(OC)c(OC)c2)cc1 | > 100 | 8.08 | 5.34 | –
16 | COc1ccc(CN(C(=O)CCC(=O)Nc2ccccc2OC)c2cc(OC)c(OC)c(OC)c2)cc1 | 48.3 | 74.4 | 5.81 | –
17 | COc1ccc(CN(C(=O)CCC(=O)Nc2cccc(F)c2)c2cc(OC)c(OC)c(OC)c2)cc1 | 39.8 | 56.2 | 11.9 | –
18 | COc1ccc(CN(C(=O)CCC(=O)Nc2cccc(OC)c2)c2cc(OC)c(OC)c(OC)c2)cc1 | 12 | 21.4 | 8.27 | –
19 | COc1ccc(CN(C(=O)CCC(=O)Nc2ccc(C(F)(F)F)cc2)c2cc(OC)c(OC)c(OC)c2)cc1 | 4.65 | > 100 | > 100 | –
20 | COc1ccc(CN(C(=O)CCC(=O)Nc2ccc(F)cc2)c2cc(OC)c(OC)c(OC)c2)cc1 | 2.39 | 24 | 4.06 | –
21 | COc1ccc(CN(C(=O)CCC(=O)Nc2ccccc2)c2cc(OC)c(OC)c(OC)c2)cc1 | 16 | 16.1 | 2.11 | –

— ChEMBL document CHEMBL6074647, “Design, synthesis and antitumor activity of novel 4-oxobutanamide derivatives” (Bioorg Med Chem Lett, 2024)
